Data from patent US11129845B2, “Compositions and methods for the delivery of nucleic acids” (CASE WESTERN RESERVE UNIVERSITY, priority 2014, dated 2021).

Columns and labels:
[1] = Nanoparticle diameter and polydispersity by dynamic light scattering (Malvern Zetasizer); type: physicochemical; settings: for Nanoparticle diameter as measured by dynamic light scattering: siRNA-lipid complexes
Procedure: (§1) The cationic lipid carriers are dissolved in ethanol at a stock concentration of 2.5 mM, while all siRNA is reconstituted in nuclease-free water at a 0.25 μg/μL (18.8 μM) concentration. Nanoparticles are formulated by mixing the carriers with siRNA for a period of 30 min in RNase-free phosphate buffer saline (PBS) at pre-specified N/P ratios (N=number of protonable amines in lipid, P=number of phosphate groups in the siRNA). In preparing the lipoplexes, proper dilutions were made such that the volume ratio of ethanol:water was kept constant at 1:20. Minimizing the amount of ethanol is important because it is effective in dissolving lipids, thus inhibiting particle formation. The diameters (as determined by dynamic light scattering) and zeta potentials of all nanoparticles were analyzed using a Malvern Zetasizer instrument at pH=7.4. siRNA encapsulation efficiency was calculated using a RiboGreen fluorescence-based assay from Invitrogen, designed specifically for detection of free RNA at […] wavelengths of 480 and 520 nm, respectively. Nanoparticles were created with all carriers in the library so that final siRNA concentrations were 1.6 μg/mL. A linear standard curve was utilized to calculate the encapsulation efficiencies from signal intensities measured by a SpectraMax microplate reader (Molecular Devices).

[2] = Zeta-potential of siRNA-lipid complexes (Malvern Zetasizer); type: physicochemical
Procedure: as §1

[3] = system: HT29 colon carcinoma cells; assay: Cellular uptake of Alexa Fluor 488-siRNA via flow cytometry; type: cell-based, human; settings: HT29, N/P=18, 4 h, 100 nM Alexa Fluor 488-siRNA
Procedure: Flow cytometry was used to investigate the cellular uptake of our delivery system in HT29 colon carcinoma cells. All carriers in the library were formulated into nanoparticles by condensing Alexa Fluor 488-labeled siRNA at the optimal N/P ratio determined by the above luciferase knockdown studies. Approximately 50,000 cancer cells were seeded in 6-well plates and allowed to grow until 30-50% confluence was reached. The cancer cells were transfected with a 100 nM siRNA dose in serum-free media. After 4 h, the transfection media were aspirated and the cells were washed twice with PBS. The cells were then trypsinized, collected, and fixed with 2% paraformaldehyde in PBS, prior to flow cytometric analysis.

luciferase reporter = assay: Luciferase reporter silencing in HT29-Luc cells; type: cell-based, human; settings: HT29, N/P 18, 72 h post-transfection
Procedure: Gene silencing efficiency was investigated in the HT29-Luc cell line by analyzing the expression of a luciferase reporter after anti-Luc siRNA therapy. To perform this study, cancer cells were seeded in 12 well plates at a density of 20,000 cells per well. Transfections were conducted in fresh serum-free media with 100 nM of siRNA when the cells were 25% confluent. The cells continued to grow in normal growth media for an additional 48 and 72 h, at which point they were rinsed twice with PBS and lysed for protein collection. The lysis buffer was a component of a Promega Luciferase Assay kit designed for measuring luciferase expression in the cell lysate. Equally important, the lysis buffer was compatible with the BCA protein assay so that we were able to normalize the luciferase expression in our samples with total protein content. For this silencing study, all synthesized carriers were evaluated at N/P ratios of 8, 10, 12, 14, 16, 18, and 20 to determine the best transfection formulation. Relative luciferase expression was determined for each trial using a SpectraMax luminometer upon the addition of a light-inducing luciferin substrate to the collected protein.
The RNAi capabilities of each carrier were investigated by analyzing the silencing of a luciferase (Luc) reporter in HT29 cancer cells after anti-Luc siRNA therapy. To perform this study, we seeded HT29-Luc cells in 12 well plates at a density of 20,000 cells per well. When 25% confluency, the cells were incubated with fresh serum-free transfection media containing nanoparticles at a dose of 100 nM siRNA. After 4 hours, the media was replaced with fresh complete growth media, so that the cells could continue to grow for an additional 48-72 hours, at which point they were lysed for protein collection. The lysis buffer was compatible with the BCA protein assay so that we could normalize luciferase expression in our samples. Negative controls included cells that were treated with 1) particles encapsulating non-specific siRNA, 2) naked anti-Luc siRNA, or 3) plain serum-free media. Luciferase expression was determined using a Spectra Max luminometer upon the addition of a light-inducing substrate to the collected protein. A similar knockdown experiment was also conducted in non-cancerous CHO cells expressing a GFP reporter. Flow cytometry was utilized to assess the silencing efficiency of the ECO and ECL delivery systems in this cell line. Cytotoxicity of the carriers 48 hours post-transfection was also investigated in both cell lines using an MTT colorimetric assay. […] These RNAi silencing levels surpassed those obtained with a Lipofectamine RNAiMax commercial transfection agent.

Red blood cells (RBCs) = assay: pH-sensitive hemolytic activity of carrier library; type: cell-based, rat; settings: all N/P ratios (5, 10, 15) and pHs (7.4, 6.5, 5.4) tested
Procedure: Hemolytic activity of each carrier was determined to verify the pH-sensitive membrane disruption capabilities of each carrier in the delivery system. Red blood cells (RBCs) extracted from rats were purchased from Innovative Research Inc. (Novi, Mich.) and diluted 1:50 in PBS solutions of pHs=5.4, 6.5, or 7.4. A total of 100 μL of nanoparticles were created at N/P ratios of 5, 10, 15 and then incubated with 100 μL of diluted RBCs at 37° C. for 2 h. Nanoparticles were formulated so that the final amine concentration for all the samples, after mixing with the RBCs, was 150 μM. Multiple pHs were tested to predict if the nanoparticles could disrupt membranes of the endosomal-lysosomal compartments (pH=5-6), without affecting the integrity of the outer cell membrane prior to endocytosis (pH=7.4). The absorbance of each test sample was measured on a SpectraMax spectrophotometer at a wavelength of 540 nm in order to determine the amount of hemoglobin released from the RBCs, due to membrane destabilization, relative to that achieved by a positive control treatment of 1% (v/v) Triton-X100 surfactant during the 2 hour incubation period.

CHO-GFP cells = type: cell-based, Chinese hamster
Procedure: Cytotoxicity of the carriers was investigated using an MTT colorimetric assay measuring cellular metabolic activity (Invitrogen). The transfection procedure was identical to that presented for the reporter knockdown studies above, except for the fact that 96 well plates were utilized instead, and seeded with 10,000 cells per well. After transfection, the cells were allowed to grow for an additional 48 h. At that point, they were incubated with MTT for 4 h, followed by an additional 4 hour incubation with an SDS-HCl solution to dissolve any insoluble formazan crystals formed by the reduction of MTT by NAD(P)H-dependent enzymes in the cells. The absorbance of each sample was measured at 570 nm using a SpectraMax microplate reader. Cellular viability was calculated by averaging the signal intensities over three replicates and then normalizing the results relative to the negative control data.
The RNAi capabilities of each carrier were investigated by analyzing the silencing of a luciferase (Luc) reporter in HT29 cancer cells after anti-Luc siRNA therapy. To perform this study, we seeded HT29-Luc cells in 12 well plates at a density of 20,000 cells per well. […] Luciferase expression was determined using a Spectra Max luminometer upon the addition of a light-inducing substrate to the collected protein. […]

SMILES	Polydispersity of siRNA-lipid complexes ([1]; N/P = 2)	Polydispersity of siRNA-lipid complexes ([1]; N/P = 5)	Polydispersity of siRNA-lipid complexes ([1]; N/P = 8)	Polydispersity of siRNA-lipid complexes ([1]; N/P = 10)	Polydispersity of siRNA-lipid complexes ([1]; N/P = 15)	Nanoparticle diameter as measured by dynamic light scattering ([1]; N/P = 2) [nm]	Nanoparticle diameter as measured by dynamic light scattering ([1]; N/P = 5) [nm]	Nanoparticle diameter as measured by dynamic light scattering ([1]; N/P = 8) [nm]	Nanoparticle diameter as measured by dynamic light scattering ([1]; N/P = 10) [nm]	Nanoparticle diameter as measured by dynamic light scattering ([1]; N/P = 15) [nm]	Zeta-potential of siRNA-lipid complexes ([2]; pH = 7.4, N/P = 2) [mV]	Zeta-potential of siRNA-lipid complexes ([2]; pH = 7.4, N/P = 5) [mV]	Zeta-potential of siRNA-lipid complexes ([2]; pH = 7.4, N/P = 8) [mV]	Zeta-potential of siRNA-lipid complexes ([2]; pH = 7.4, N/P = 10) [mV]	Zeta-potential of siRNA-lipid complexes ([2]; pH = 7.4, N/P = 15) [mV]	cellular uptake, mean fluorescence intensity (MFI) [3]	luciferase knockdown (transfection efficiency) (luciferase reporter) [%]	hemolytic activity relative to Triton X-100 (Red blood cells (RBCs))	relative cell viability (MTT) (CHO-GFP cells) [%]
CCCCC/C=C\C/C=C\CCCCCCCC(=O)NC(CS)C(=O)NC(Cc1cnc[nH]1)C(=O)NCCNC(=O)CCN(CCN)CCC(=O)NCCNC(=O)C(Cc1cnc[nH]1)NC(=O)C(CS)NC(=O)CCCCCCC/C=C\C/C=C\CCCCC (stereo not drawn) [EHCLn]	0.299	0.197	0.167	0.112	0.127	403 ± 35	379 ± 28	227 ± 20	130 ± 14	60 ± 11	−23.73 ± 2.26	−17.04 ± 1.32	0.49 ± 1.17	11.34 ± 1.67	24.92 ± 2.89	–	–	–	–
CCCCC/C=C\C/C=C\CCCCCCCC(=O)NC(CS)C(=O)NC(Cc1cnc[nH]1)C(=O)NCCNC(=O)CCN(CCCNCCCCNCCCN)CCC(=O)NCCNC(=O)C(Cc1cnc[nH]1)NC(=O)C(CS)NC(=O)CCCCCCC/C=C\C/C=C\CCCCC (stereo not drawn) [SHCLn]	0.246	0.183	0.174	0.114	0.163	559 ± 38	223 ± 23	119 ± 13	132 ± 15	75 ± 10	−32.09 ± 1.65	24.02 ± 1.07	26.35 ± 1.40	25.59 ± 2.22	23.80 ± 2.95	4414±413	–	–	83.3±4.22

Further lines, with some results ahead:

Polydispersity of siRNA-lipid complexes ([1]; N/P = 2)	Polydispersity of siRNA-lipid complexes ([1]; N/P = 5)	Polydispersity of siRNA-lipid complexes ([1]; N/P = 8)	Polydispersity of siRNA-lipid complexes ([1]; N/P = 10)	Polydispersity of siRNA-lipid complexes ([1]; N/P = 15)	Nanoparticle diameter as measured by dynamic light scattering ([1]; N/P = 2) [nm]	Nanoparticle diameter as measured by dynamic light scattering ([1]; N/P = 5) [nm]	Nanoparticle diameter as measured by dynamic light scattering ([1]; N/P = 8) [nm]	Nanoparticle diameter as measured by dynamic light scattering ([1]; N/P = 10) [nm]	Nanoparticle diameter as measured by dynamic light scattering ([1]; N/P = 15) [nm]	Zeta-potential of siRNA-lipid complexes ([2]; pH = 7.4, N/P = 2) [mV]	Zeta-potential of siRNA-lipid complexes ([2]; pH = 7.4, N/P = 5) [mV]	Zeta-potential of siRNA-lipid complexes ([2]; pH = 7.4, N/P = 8) [mV]	Zeta-potential of siRNA-lipid complexes ([2]; pH = 7.4, N/P = 10) [mV]	Zeta-potential of siRNA-lipid complexes ([2]; pH = 7.4, N/P = 15) [mV]	SMILES	cellular uptake, mean fluorescence intensity (MFI) [3]	luciferase knockdown (transfection efficiency) (luciferase reporter) [%]	hemolytic activity relative to Triton X-100 (Red blood cells (RBCs))	relative cell viability (MTT) (CHO-GFP cells) [%]
0.276	0.195	0.165	0.122	0.161	480 ± 30	427 ± 25	380 ± 18	141 ± 15	51 ± 10	−23.14 ± 2.47	−14.09 ± 1.88	5.54 ± 1.37	18.80 ± 1.02	22.68 ± 2.08	CCCCCCCC/C=C\CCCCCCCC(=O)NC(CS)C(=O)NC(Cc1cnc[nH]1)C(=O)NCCNC(=O)CCN(CCN)CCC(=O)NCCNC(=O)C(Cc1cnc[nH]1)NC(=O)C(CS)NC(=O)CCCCCCC/C=C\CCCCCCCC (stereo not drawn) [EHCO]	1957±208	46.4±5.8	–	–
0.339	0.236	0.19	0.158	0.176	407 ± 35	138 ± 28	63 ± 12	65 ± 11	53 ± 9	−29.49 ± 1.33	26.60 ± 2.76	23.16 ± 1.88	23.29 ± 3.11	25.16 ± 3.75	CCCCCCCC/C=C\CCCCCCCC(=O)NC(CS)C(=O)NCCNC(=O)CCN(CCCNCCCCNCCCN)CCC(=O)NCCNC(=O)C(CS)NC(=O)CCCCCCC/C=C\CCCCCCCC (stereo not drawn) [SCO]	–	–	greatest hemolytic activity	–
0.238	0.192	0.189	0.154	0.124	441 ± 32	238 ± 27	139 ± 17	151 ± 16	46 ± 8	−32.09 ± 1.65	−18.5 ± 2.43	18.32 ± 1.45	21.76 ± 2.31	23.94 ± 1.70	CCCCCCCC/C=C\CCCCCCCC(=O)NC(CS)C(=O)NC(Cc1cnc[nH]1)C(=O)NCCNC(=O)CCN(CCCNCCCCNCCCN)CCC(=O)NCCNC(=O)C(Cc1cnc[nH]1)NC(=O)C(CS)NC(=O)CCCCCCC/C=C\CCCCCCCC (stereo not drawn) [SHCO]	3580±244	–	–	–
